Test results reported in ChEMBL document CHEMBL5214962, “Improving lipophilicity of 5-(1-acetyl-5-phenylpyrazolidin-3-ylidene)-1,3-dimethylbarbituric acid increases its efficacy to activate hypoxia-inducible factors” (Bioorg Med Chem, 2022).
The source made the active and inactive calls. The rule behind the calls is not given here.

How the values were obtained:
[1] = Cytotoxicity against human SK-N-BE(2)-C expressing HRE-NLuc reporter system assessed as reduction in cell viability incubated for 24 hrs by CCK-8 assay; type: toxicity, cell-based; settings: SK-N-BE(2)-C cells expressing HRE-NLuc reporter system, read-out: LC50
[2] = tested on: SK-N-BE(2)-C; test: Activation of HIF-alpha transcriptional activity in human SK-N-BE(2)-C expressing HRE-NLuc reporter system assessed as compound concentration require for 5 fold increase in NLuc luciferase activity incubated for 24 hrs by Nano-Glo luciferase assay; type: cell-based
[3] = target: Hypoxia-inducible factor 1-alpha (Homo sapiens) (UniProt Q16665); test: Induction of HIF-1alpha stabilization in human Hep3B cells assessed as HIF-1alpha level at 1 to 100 uM incubated for 24 hrs by immunoblot analysis; type: cell-based; settings: filed as activator, dose 1-100 µM, DDE = dose-dependent effect
[4] = target: Endothelial PAS domain-containing protein 1 (Homo sapiens) (UniProt Q99814); test: Induction of HIF-2alpha stabilization in human Hep3B cells assessed as […] at 1 to 100 uM incubated for 24 hrs by immunoblot analysis; type: cell-based; settings: filed as activator, dose 1-100 µM, DDE = dose-dependent effect
[5] = tested on: Hep3B; test: Activation of HIF dependent pathway in human Hep3B cells assessed as increase in EPO mRNA expression level at 10 to 100 uM incubated for 24 hrs by RT-qPCR analysis; type: cell-based; settings: filed as activator, dose 10-100 µM
[6] = target: Endothelial PAS domain-containing protein 1 (Homo sapiens) (UniProt Q99814); test: Induction of HIF-2alpha stabilization in human Hep3B cells assessed as […] at 16 to 1000 nM incubated for 24 hrs by immunoblot analysis; type: cell-based; settings: filed as activator, dose 16-1000 nM, DDE = dose-dependent effect
[7] = target: Hypoxia-inducible factor 1-alpha (Homo sapiens) (UniProt Q16665); test: Induction of HIF-1alpha stabilization in human Hep3B cells assessed as HIF-1alpha level at 16 to 1000 nM incubated for 24 hrs by immunoblot analysis; type: cell-based; settings: filed as activator, dose 16-1000 nM, DDE = dose-dependent effect
[8] = tested on: Hep3B; test: Activation of HIF dependent pathway in human Hep3B cells assessed as increase in CA9 mRNA expression level at 10 to 100 uM incubated for 24 hrs by RT-qPCR analysis; type: cell-based; settings: filed as activator, dose 10-100 µM

Endothelial PAS domain-containing protein 1 (Homo sapiens), sequence (Q99814 whole entry, the tested form may be a part): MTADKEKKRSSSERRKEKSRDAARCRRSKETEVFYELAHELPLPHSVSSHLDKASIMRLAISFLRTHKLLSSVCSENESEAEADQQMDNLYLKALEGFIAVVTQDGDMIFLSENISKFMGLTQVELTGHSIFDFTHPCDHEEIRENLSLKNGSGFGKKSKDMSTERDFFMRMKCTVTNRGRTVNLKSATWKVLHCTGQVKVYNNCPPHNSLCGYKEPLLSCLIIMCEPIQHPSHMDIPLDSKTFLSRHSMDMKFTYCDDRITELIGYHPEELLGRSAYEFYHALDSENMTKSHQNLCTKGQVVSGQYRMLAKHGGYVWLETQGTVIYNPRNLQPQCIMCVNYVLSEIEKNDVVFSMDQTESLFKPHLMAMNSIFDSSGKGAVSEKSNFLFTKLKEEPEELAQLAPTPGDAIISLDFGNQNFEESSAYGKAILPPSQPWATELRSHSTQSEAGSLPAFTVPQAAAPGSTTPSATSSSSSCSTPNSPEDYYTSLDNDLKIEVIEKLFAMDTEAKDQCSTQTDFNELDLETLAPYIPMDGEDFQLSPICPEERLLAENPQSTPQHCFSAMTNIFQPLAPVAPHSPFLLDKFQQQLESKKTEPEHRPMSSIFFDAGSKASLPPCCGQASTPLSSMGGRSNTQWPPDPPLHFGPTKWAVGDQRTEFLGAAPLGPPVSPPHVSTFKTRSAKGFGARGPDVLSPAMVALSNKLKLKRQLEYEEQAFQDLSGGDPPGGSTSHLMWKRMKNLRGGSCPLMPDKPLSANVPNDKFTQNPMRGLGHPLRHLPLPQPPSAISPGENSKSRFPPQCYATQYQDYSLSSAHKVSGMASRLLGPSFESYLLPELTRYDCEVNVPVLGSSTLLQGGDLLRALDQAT
Hypoxia-inducible factor 1-alpha (Homo sapiens), sequence (Q16665 whole entry, looked up, the tested form may be a part): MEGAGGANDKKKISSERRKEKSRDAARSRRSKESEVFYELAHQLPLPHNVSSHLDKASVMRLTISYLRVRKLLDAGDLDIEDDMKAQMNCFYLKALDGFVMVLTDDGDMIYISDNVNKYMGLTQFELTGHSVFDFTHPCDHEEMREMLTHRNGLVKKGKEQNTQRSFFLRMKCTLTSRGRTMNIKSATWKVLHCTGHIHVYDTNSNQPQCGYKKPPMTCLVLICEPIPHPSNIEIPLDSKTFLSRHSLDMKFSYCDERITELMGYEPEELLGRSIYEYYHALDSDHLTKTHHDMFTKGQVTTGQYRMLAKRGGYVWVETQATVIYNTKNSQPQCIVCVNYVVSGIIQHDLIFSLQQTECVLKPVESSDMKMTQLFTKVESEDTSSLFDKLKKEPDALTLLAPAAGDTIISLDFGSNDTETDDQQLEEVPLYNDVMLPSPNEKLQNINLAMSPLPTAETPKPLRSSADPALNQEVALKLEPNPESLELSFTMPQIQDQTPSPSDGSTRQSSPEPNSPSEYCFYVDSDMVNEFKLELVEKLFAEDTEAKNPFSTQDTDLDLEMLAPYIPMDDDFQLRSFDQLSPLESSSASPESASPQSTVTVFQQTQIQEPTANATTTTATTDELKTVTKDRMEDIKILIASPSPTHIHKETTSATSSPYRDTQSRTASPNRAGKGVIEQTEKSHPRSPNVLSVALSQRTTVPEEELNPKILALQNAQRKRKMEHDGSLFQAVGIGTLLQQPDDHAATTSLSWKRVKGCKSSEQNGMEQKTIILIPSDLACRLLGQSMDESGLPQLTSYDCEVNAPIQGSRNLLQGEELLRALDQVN

SMILES	CC50 at 24 h [1] [µM]	Activity ([2]; filed as activator) [µM]	further results
CCC(=O)N1NC(=C2C(=O)N(C)C(=O)N(C)C2=O)CC1c1ccc(-c2ccccc2)cc1 (centres undefined)	> 100	3.87	–
CC(C)C(=O)N1NC(=C2C(=O)N(C)C(=O)N(C)C2=O)CC1c1ccccc1 (centres undefined)	> 100	8.55	–
CC(=O)N1NC(=C2C(=O)N(C)C(=O)N(C)C2=O)CC1c1ccc(Oc2ccccc2)cc1 (centres undefined)	> 100	6.82	–
CCCC(=O)N1NC(=C2C(=O)N(C)C(=O)N(C)C2=O)CC1c1ccccc1 (centres undefined)	> 100	4.85	–
CCC(=O)N1NC(=C2C(=O)N(C3CCCCC3)C(=O)N(C3CCCCC3)C2=O)CC1c1ccccc1 (centres undefined)	> 100	0.126	–
CC(=O)N1NC(=C2C(=O)N(C)C(=O)N(C)C2=O)CC1c1ccc(-c2ccccc2)cc1 (centres undefined)	> 100	3.88	–
CCCCCC(=O)N1NC(=C2C(=O)N(C)C(=O)N(C)C2=O)CC1c1ccccc1 (centres undefined)	> 100	0.96	–
CC(=O)N1NC(=C2C(=O)N(C)C(=O)N(C)C2=O)CC1c1ccc(F)cc1 (centres undefined)	> 100	16.5	–
Cc1nc(C(=O)NCC(=O)O)c(O)c2ccc(Oc3ccccc3)cc12	–	–	Activity [3]: Dde; Activity [4]: Dde
CCCCCCCCCC(=O)N1NC(=C2C(=O)N(C3CCCCC3)C(=O)N(C3CCCCC3)C2=O)CC1c1ccccc1 (centres undefined)	> 100	–	Activity [2]: > 100 µM
CC(C)C(=O)N1NC(=C2C(=O)N(C3CCCCC3)C(=O)N(C3CCCCC3)C2=O)CC1c1ccccc1 (centres undefined)	> 100	0.364	–
COc1ccc(C2CC(=C3C(=O)N(C)C(=O)N(C)C3=O)NN2C(C)=O)cc1 (centres undefined)	> 100	19.5	–
CCCC(=O)N1NC(=C2C(=O)N(C3CCCCC3)C(=O)N(C3CCCCC3)C2=O)CC1c1ccccc1 (centres undefined)	> 100	0.441	Activity [5]: Active; Activity [6]: Dde; Activity [3]: Dde; Activity [4]: Dde; Activity [7]: Dde; Activity [8]: Active
CC(=O)N1NC(=C2C(=O)N(C)C(=O)N(C)C2=O)CC1c1ccc(Cl)cc1 (centres undefined)	> 100	9.1	–
CC(=O)N1NC(=C2C(=O)N(C)C(=O)N(C)C2=O)CC1c1ccc(C)cc1 (centres undefined)	> 100	5.84	–
CC(=O)N1NC(=C2C(=O)N(C)C(=O)N(C)C2=O)CC1c1ccccc1 (centres undefined)	> 100	14.3	Activity [3]: Dde; Activity [4]: Dde
COc1cccc(C2CC(=C3C(=O)N(C)C(=O)N(C)C3=O)NN2C(C)=O)c1Cl (centres undefined)	> 100	26.1	–
CCCCCCCCc1ccc(C2CC(=C3C(=O)N(C)C(=O)N(C)C3=O)NN2C(C)=O)cc1 (centres undefined)	> 100	12.9	–
CC(=O)N1NC(=C2C(=O)N(C3CCCCC3)C(=O)N(C3CCCCC3)C2=O)CC1c1ccccc1 (centres undefined)	> 100	0.533	–
CCCCCCCCCC(=O)N1NC(=C2C(=O)N(C)C(=O)N(C)C2=O)CC1c1ccccc1 (centres undefined)	> 100	0.153	–
CCC(=O)N1NC(=C2C(=O)N(C)C(=O)N(C)C2=O)CC1c1ccccc1 (centres undefined)	> 100	6.53	–
CCCCCC(=O)N1NC(=C2C(=O)N(C3CCCCC3)C(=O)N(C3CCCCC3)C2=O)CC1c1ccccc1 (centres undefined)	> 100	2.41	–
CC(=O)N1NC(=C2C(=O)N(C)C(=O)N(C)C2=O)CC1c1ccc2ccccc2c1 (centres undefined)	> 100	7.67	–
